In PubChem BioAssay AID1259407 (Chemical Carcinogenesis Research Information System (CCRIS), 2018):
Activity calls are given as the source filed them. No rule for the calls is given here.

Tested on: CCRIS mutagenicity, Ames/micronucleus/aberration tests
Assay: CCRIS mutagenicity studies
[1] = Test System: AMES SALMONELLA TYPHIMURIUM, Strain/Indicator: TA97, Metabolic Activation: NONE, Method: STANDARD PLATE
[2] = Test System: AMES SALMONELLA TYPHIMURIUM, Strain/Indicator: TA98, Metabolic Activation: NONE, Method: PREINCUBATION
[3] = Test System: AMES SALMONELLA TYPHIMURIUM, Strain/Indicator: TA98, Metabolic Activation: NONE, Method: STANDARD PLATE
[4] = Test System: AMES SALMONELLA TYPHIMURIUM, Strain/Indicator: TA100, Metabolic Activation: NONE, Method: PREINCUBATION
[5] = Test System: AMES SALMONELLA TYPHIMURIUM, Strain/Indicator: TA100, Metabolic Activation: NONE, Method: STANDARD PLATE
[6] = Test System: AMES SALMONELLA TYPHIMURIUM, Strain/Indicator: TA100, Metabolic Activation: RAT, LIVER, S-9, AROCLOR 1254, Method: STANDARD PLATE
[7] = Test System: AMES SALMONELLA TYPHIMURIUM, Strain/Indicator: TA102, Metabolic Activation: NONE, Method: STANDARD PLATE

With `Cc1cc(C(C)(C)C)c(O)c(C(C)(C)C)c1` the mutagenic call (End Point: IN VITRO CHROMOSOMAL ABERRATIONS, Test System: CHINESE HAMSTER OVARY CELLS, Metabolic Activation: NONE) was “inactive; negative”, the mutagenic call (End Point: IN VITRO CHROMOSOMAL ABERRATIONS, Test System: CHINESE HAMSTER OVARY CELLS, Metabolic Activation: RAT, LIVER, S-9, AROCLOR 1254) was “inactive; negative; dose-related increase but it was not significant” and the mutagenic call [1] was “inactive; negative”. The mutagenic call (Test System: AMES SALMONELLA TYPHIMURIUM, Strain/Indicator: TA97, Metabolic Activation: RAT, LIVER, S-9, AROCLOR 1254, Method: STANDARD PLATE) was “inactive; negative”, the mutagenic call (Test System: AMES SALMONELLA TYPHIMURIUM, Strain/Indicator: TA97, Metabolic Activation: RAT, LIVER, S-9, AROCLOR, Method: STANDARD PLATE) was “inactive; negative” and the mutagenic call [2] was “inactive; negative”. The mutagenic call [3] was “inactive; negative”, the mutagenic call (Test System: AMES SALMONELLA TYPHIMURIUM, Strain/Indicator: TA98, Metabolic Activation: RAT, LIVER, S-9, AROCLOR 1254, Method: STANDARD PLATE) was “inactive; negative” and the mutagenic call (Test System: AMES SALMONELLA TYPHIMURIUM, Strain/Indicator: TA98, Metabolic Activation: RAT, LIVER, S-9, Method: PREINCUBATION) was “inactive; negative”. The mutagenic call (Test System: AMES SALMONELLA TYPHIMURIUM, Strain/Indicator: TA98, Metabolic Activation: S-9, Method: STANDARD PLATE) was “inactive; negative”, the mutagenic call [4] was “inactive; negative” and the mutagenic call [5] was “inactive; negative”. The mutagenic call [6] was “inactive; negative”, the mutagenic call (Test System: AMES SALMONELLA TYPHIMURIUM, Strain/Indicator: TA100, Metabolic Activation: RAT, LIVER, S-9, AROCLOR, Method: STANDARD PLATE) was “inactive; negative” and the mutagenic call (Test System: AMES SALMONELLA TYPHIMURIUM, Strain/Indicator: TA100, Metabolic Activation: RAT, LIVER, S-9, Method: PREINCUBATION) was “inactive; negative”. For the same compound, the mutagenic call (Test System: AMES SALMONELLA TYPHIMURIUM, Strain/Indicator: TA100, Metabolic Activation: S-9, Method: STANDARD PLATE) was “inactive; negative”, the mutagenic call [7] was “inactive; negative” and the mutagenic call (Test System: AMES SALMONELLA TYPHIMURIUM, Strain/Indicator: TA102, Metabolic Activation: RAT LIVER S-9, PHENOBARBITAL AND 5,6-BENZOFLAVONE, Method: STANDARD PLATE) was “inactive; negative”. The mutagenic call (Test System: AMES SALMONELLA TYPHIMURIUM, Strain/Indicator: TA102, Metabolic Activation: RAT, LIVER, S-9, AROCLOR, Method: STANDARD PLATE) was “inactive; negative”, the mutagenic call (Test System: AMES SALMONELLA TYPHIMURIUM, Strain/Indicator: TA104, Metabolic Activation: NONE, Method: PREINCUBATION) was “inactive; negative” and the mutagenic call (Test System: AMES SALMONELLA TYPHIMURIUM, Strain/Indicator: TA104, Metabolic Activation: NONE, Method: STANDARD PLATE) was “inactive; negative”. The mutagenic call (Test System: AMES SALMONELLA TYPHIMURIUM, Strain/Indicator: TA104, Metabolic Activation: RAT, LIVER, S-9, AROCLOR, Method: PREINCUBATION) was “inactive; negative”, the mutagenic call (Test System: AMES SALMONELLA TYPHIMURIUM, Strain/Indicator: TA104, Metabolic Activation: RAT, LIVER, S-9, AROCLOR, Method: STANDARD PLATE) was “inactive; negative” and the mutagenic call (Test System: AMES SALMONELLA TYPHIMURIUM, Strain/Indicator: TA2638, Metabolic Activation: RAT LIVER S-9, PHENOBARBITAL AND 5,6-BENZOFLAVONE, Method: STANDARD PLATE) was “inactive; negative”. The mutagenic call (Test System: E. COLI, Strain/Indicator: WP2 (PKM101), Metabolic Activation: RAT LIVER S-9, PHENOBARBITAL AND 5,6-BENZOFLAVONE, Method: STANDARD PLATE) was “inactive; negative” and the mutagenic call (Test System: E.COLI, Strain/Indicator: WP2 UVRA (PKM101), Metabolic Activation: RAT LIVER S-9, PHENOBARBITAL AND 5,6-BENZOFLAVONE, Method: STANDARD PLATE) was “inactive; negative”.
For `NC(=O)CN1CC(O)CC1=O` (stereo not drawn), the mutagenic call (Test System: AMES SALMONELLA TYPHIMURIUM, Strain/Indicator: TA98, Metabolic Activation: NONE) was “inactive; negative”, the mutagenic call (Test System: AMES SALMONELLA TYPHIMURIUM, Strain/Indicator: TA98, Metabolic Activation: RAT, LIVER, S-9, AROCLOR 1254) was “inactive; negative” and the mutagenic call (Test System: AMES SALMONELLA TYPHIMURIUM, Strain/Indicator: TA100, Metabolic Activation: NONE) was “inactive; negative”. The mutagenic call (Test System: AMES SALMONELLA TYPHIMURIUM, Strain/Indicator: TA100, Metabolic Activation: RAT, LIVER, S-9, AROCLOR 1254) was “inactive; negative”, the mutagenic call (Test System: AMES SALMONELLA TYPHIMURIUM, Strain/Indicator: TA1535, Metabolic Activation: NONE) was “inactive; negative” and the mutagenic call (Test System: AMES SALMONELLA TYPHIMURIUM, Strain/Indicator: TA1535, Metabolic Activation: RAT, LIVER, S-9, AROCLOR 1254) was “inactive; negative”. For the same compound, the mutagenic call (Test System: AMES SALMONELLA TYPHIMURIUM, Strain/Indicator: TA1537, Metabolic Activation: NONE) was “inactive; negative”, the mutagenic call (Test System: AMES SALMONELLA TYPHIMURIUM, Strain/Indicator: TA1537, Metabolic Activation: RAT, LIVER, S-9, AROCLOR 1254) was “inactive; negative” and the mutagenic call (Test System: E. COLI, Strain/Indicator: WP2 UVRA, Metabolic Activation: NONE) was “inactive; negative”. For the same compound, the mutagenic call (Test System: E. COLI, Strain/Indicator: WP2 UVRA, Metabolic Activation: RAT, LIVER, S-9, AROCLOR 1254) was “inactive; negative”.
With `O=C1c2ccccc2C(=O)c2c1ccc(O)c2O` the mutagenic call [2] was “inactive; negative”, the mutagenic call (Test System: AMES SALMONELLA TYPHIMURIUM, Strain/Indicator: TA98, Metabolic Activation: RAT, LIVER, S-9, PCB, Method: PREINCUBATION) was “inactive; negative” and the mutagenic call [4] was “inactive; negative”. For the same compound, the mutagenic call [5] was “inactive; negative”, the mutagenic call [6] was “inactive; negative” and the mutagenic call (Test System: AMES SALMONELLA TYPHIMURIUM, Strain/Indicator: TA100, Metabolic Activation: RAT, LIVER, S-9, PCB, Method: PREINCUBATION) was “inactive; negative”. The mutagenic call (Test System: AMES SALMONELLA TYPHIMURIUM, Strain/Indicator: TA1535, Metabolic Activation: NONE, Method: STANDARD PLATE) was “inactive; negative”, the mutagenic call (Test System: AMES SALMONELLA TYPHIMURIUM, Strain/Indicator: TA1535, Metabolic Activation: RAT, LIVER, S-9, AROCLOR 1254, Method: STANDARD PLATE) was “inactive; negative” and the mutagenic call (Test System: AMES SALMONELLA TYPHIMURIUM, Strain/Indicator: TA1537, Metabolic Activation: NONE, Method: STANDARD PLATE) was “active; positive”. The mutagenic call (Test System: AMES SALMONELLA TYPHIMURIUM, Strain/Indicator: TA1537, Metabolic Activation: RAT, LIVER, S-9, AROCLOR 1254, Method: STANDARD PLATE) was “active; positive”, the mutagenic call (Test System: AMES SALMONELLA TYPHIMURIUM, Strain/Indicator: TA1537, Metabolic Activation: RAT, LIVER, S-9, Method: PREINCUBATION) was “active; positive” and the mutagenic call (Test System: AMES SALMONELLA TYPHIMURIUM, Strain/Indicator: TA1538, Metabolic Activation: NONE, Method: STANDARD PLATE) was “inactive; negative”. For the same compound, the mutagenic call (Test System: AMES SALMONELLA TYPHIMURIUM, Strain/Indicator: TA1538, Metabolic Activation: RAT, LIVER, S-9, AROCLOR 1254, Method: STANDARD PLATE) was “inactive; negative” and the mutagenic call (Test System: UDS RODENT HEPATOCYTES, Strain/Indicator: THY INCORP (NON-S-PHASE), Metabolic Activation: NONE, Method: AUTORADIOGRAPHY) was “active; positive”.
With `CCOC(=O)Cc1c(C(=O)O)c2ccccc2n1C` the mutagenic call [1] was “inactive; negative”, the mutagenic call (Test System: AMES SALMONELLA TYPHIMURIUM, Strain/Indicator: TA97, Metabolic Activation: RAT, LIVER, S-9, AROCLOR 1254 (4%, 10%), Method: STANDARD PLATE) was “inactive; negative” and the mutagenic call [3] was “inactive; negative”. The mutagenic call (Test System: AMES SALMONELLA TYPHIMURIUM, Strain/Indicator: TA98, Metabolic Activation: RAT, LIVER, S-9, AROCLOR 1254 (4%, 10%), Method: STANDARD PLATE) was “inactive; negative”, the mutagenic call [5] was “inactive; negative” and the mutagenic call (Test System: AMES SALMONELLA TYPHIMURIUM, Strain/Indicator: TA100, Metabolic Activation: RAT, LIVER, S-9, AROCLOR 1254 (4%, 10%), Method: STANDARD PLATE) was “inactive; negative”. The mutagenic call [7] was “inactive; negative” and the mutagenic call (Test System: AMES SALMONELLA TYPHIMURIUM, Strain/Indicator: TA102, Metabolic Activation: RAT, LIVER, S-9, AROCLOR 1254 (4%, 10%), Method: STANDARD PLATE) was “inactive; negative”.
